Results: article PMC10940605, “Design, synthesis and in vitro anticancer activity of some new lomefloxacin derivatives” (Scientific Reports, 2024)

What was measured:
Assay in all cases: NCI-60 SRB screen
Assay type in all cases: cell-based
SK-MEL-28 = conditions: Homo sapiens; SK-MEL-28, 10^–5 Molar; read-out: Percent growth inhibition
Method in brief: (§1)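 Growth inhibition derived from SRB-stained protein read at […], normalised to cell density at drug addition and to drug-free controls. Exposure: 48 h at 10^−5 M in RPMI 1640 with L-glutamine and fetal bovine serum.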

NCI/ADR-RES = conditions: Homo sapiens, 10^–5 Molar, read-out: Percent growth inhibition
Method in brief: (§2)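 10^−5 M single dose, 48 h exposure, SRB end point. % growth = (Ti−Tz)/(C−Tz)×100 when Ti≥Tz, else (Ti−Tz)/Tz×100.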

MDA-MB-468 = conditions: Homo sapiens; MDA-MB-468, 10^–5 Molar; read-out: Percent growth inhibition
Method in brief: as §1

NCI-H522 = conditions: Homo sapiens; NCI-H522, 10^–5 Molar; read-out: Percent growth inhibition
Method in brief: as §1

A498 = conditions: Homo sapiens; A498, 10^–5 Molar; read-out: Percent growth inhibition
Method in brief: as §2

SN12C = conditions: Homo sapiens, 10^–5 Molar, read-out: Percent growth inhibition
Method in brief: as §2

SF-268 = conditions: Homo sapiens; SF-268, 10^–5 Molar; read-out: Percent growth inhibition
Method in brief: as §2

UO-31 = conditions: Homo sapiens; UO-31, 10^–5 Molar; read-out: Percent growth inhibition
Method in brief: as §1

LOX IMVI = conditions: Homo sapiens, 10^–5 Molar, read-out: Percent growth inhibition
Method in brief: as §2

HCT-116 = conditions: Homo sapiens; HCT-116, 10^–5 Molar; read-out: Percent growth inhibition
Method in brief: as §1

EKVX = conditions: Homo sapiens, 10^–5 Molar, read-out: Percent growth inhibition
Method in brief: as §1

T-47D = conditions: Homo sapiens, T47D, 10^–5 Molar, read-out: Percent growth inhibition
Method in brief: as §2

NCI-H322M = conditions: Homo sapiens, 10^–5 Molar, read-out: Percent growth inhibition
Method in brief: as §1

U251 = conditions: Homo sapiens, U-251; U251, 10^–5 Molar; read-out: Percent growth inhibition
Method in brief: as §1

BT-549 = conditions: Homo sapiens; BT-549, 10^–5 Molar; read-out: Percent growth inhibition
Method in brief: as §1

leukemia SR = conditions: Homo sapiens; SR, 10^–5 Molar; read-out: Percent growth inhibition
Method in brief: as §1

786-0 = conditions: Homo sapiens; 786-0, 10^–5 Molar; read-out: Percent growth inhibition
Method in brief: as §2

NCI-H460 = conditions: Homo sapiens; NCI-H460, 10^–5 Molar; read-out: Percent growth inhibition
Method in brief: as §1

melanoma SK-MEL-5 = conditions: Homo sapiens; SK-MEL-5, 10^–5 Molar; read-out: Percent growth inhibition
Method in brief: as §2

HS 578T = conditions: Homo sapiens, 10^–5 Molar, read-out: Percent growth inhibition
Method in brief: as §1

OVCAR-5 = conditions: Homo sapiens; OVCAR-5, 10^–5 Molar; read-out: Percent growth inhibition
Method in brief: as §2

OVCAR-4 = conditions: Homo sapiens; OVCAR-4, 10^–5 Molar; read-out: Percent growth inhibition
Method in brief: as §1

UACC-62 = conditions: Homo sapiens; UACC-62, 10^–5 Molar; read-out: Percent growth inhibition
Method in brief: as §2

RXF 393 = conditions: Homo sapiens, 48 h; RXF 393, 10^–5 Molar; read-out: Percent growth inhibition
Method in brief: as §1

Work on CCn1cc(C(=O)NN=Cc2ccccc2)c(=O)c2cc(F)c(N3CCNC(C)C3)c(F)c21 (stereo not drawn) [Compound 3a, N'-Benzylidene-1-ethyl-6,8-difluoro-7-(3-methylpiperazin-1-yl)-4-oxo-1,4-dihydroquinoline-3-carbohydrazide] yielded an inhibition at 10 µM (SK-MEL-28) of 179%, an inhibition at 10 µM (NCI/ADR-RES) of 44% and an inhibition at 10 µM (MDA-MB-468) of 69.6%. For the same compound, the inhibition at 10 µM (NCI-H522) was 175%, the inhibition at 10 µM (A498) was 0.4% and the inhibition at 10 µM (SN12C) was 38.3%. The inhibition at 10 µM (SF-268) was 61.1%, the inhibition at 10 µM (UO-31) was 52.5% and the inhibition at 10 µM (LOX IMVI) was 187%. The inhibition at 10 µM (HCT-116) was 42.5%, the inhibition at 10 µM (EKVX) was 65.7% and the inhibition at 10 µM (T-47D) was 36.4%. It also gave an inhibition at 10 µM (NCI-H322M) of 47.5%, an inhibition at 10 µM (U251) of 192% and an inhibition at 10 µM (BT-549) of 22.2%. The inhibition at 10 µM (leukemia SR) was 115%, the inhibition at 10 µM (786-0) was 167% and the inhibition at 10 µM (NCI-H460) was 173%. It also gave an inhibition at 10 µM (melanoma SK-MEL-5) of 88.1%, an inhibition at 10 µM (HS 578T) of 30.3% and an inhibition at 10 µM (OVCAR-5) of 33%. The inhibition at 10 µM (OVCAR-4) was 29.3%, the inhibition at 10 µM (UACC-62) was 128% and the inhibition at 10 µM (RXF 393) was 161%.
Compound CCn1cc(C(=O)NN=Cc2cccc(F)c2)c(=O)c2cc(F)c(N3CCNC(C)C3)c(F)c21 (stereo not drawn) [Compound 3b, 1-Ethyl-6,8-difluoro-N′-(3-fluorobenzylidene)-7-(3-methylpiperazin-1-yl)-4-oxo-1,4-dihydroquinoline-3-carbohydrazide] has an inhibition at 10 µM (SK-MEL-28) of 164%, an inhibition at 10 µM (NCI/ADR-RES) of 21.6% and an inhibition at 10 µM (MDA-MB-468) of 28.4%. It also gave an inhibition at 10 µM (NCI-H522) of 130%, an inhibition at 10 µM (A498) of 0.84% and an inhibition at 10 µM (SN12C) of 104%. It also gave an inhibition at 10 µM (SF-268) of 60.6%, an inhibition at 10 µM (UO-31) of 79.4% and an inhibition at 10 µM (LOX IMVI) of 191%. The inhibition at 10 µM (HCT-116) was 28.8%, the inhibition at 10 µM (EKVX) was 49.2% and the inhibition at 10 µM (T-47D) was 27.7%. It also gave an inhibition at 10 µM (NCI-H322M) of 16.6%, an inhibition at 10 µM (U251) of 174% and an inhibition at 10 µM (BT-549) of 17.1%. The inhibition at 10 µM (leukemia SR) was 129%, the inhibition at 10 µM (786-0) was 140% and the inhibition at 10 µM (NCI-H460) was 179%. For the same compound, the inhibition at 10 µM (melanoma SK-MEL-5) was 47.4%, the inhibition at 10 µM (HS 578T) was 18.7% and the inhibition at 10 µM (OVCAR-5) was 9.76%. For the same compound, the inhibition at 10 µM (OVCAR-4) was 76.2%, the inhibition at 10 µM (UACC-62) was 35.2% and the inhibition at 10 µM (RXF 393) was 122%.
Compound CCn1cc(C(=O)NN=Cc2cccnc2)c(=O)c2cc(F)c(N3CCNC(C)C3)c(F)c21 (stereo not drawn) [Compound 3d, 1-Ethyl-6,8-difluoro-7-(3-methylpiperazin-1-yl)-4-oxo-N'-(pyridin-3-ylmethylene)-1,4-dihydroquinoline-3-carbohydrazide] has an inhibition at 10 µM (SK-MEL-28) of 23.1%, an inhibition at 10 µM (NCI/ADR-RES) of 2.29% and an inhibition at 10 µM (MDA-MB-468) of 69.3%. The inhibition at 10 µM (NCI-H522) was 61.5%, the inhibition at 10 µM (A498) was 40.3% and the inhibition at 10 µM (SN12C) was 69.4%. The inhibition at 10 µM (SF-268) was 63%, the inhibition at 10 µM (UO-31) was 12.5% and the inhibition at 10 µM (LOX IMVI) was 82%. It also gave an inhibition at 10 µM (HCT-116) of 66.5%, an inhibition at 10 µM (EKVX) of 37.2% and an inhibition at 10 µM (T-47D) of 52.6%. For the same compound, the inhibition at 10 µM (NCI-H322M) was 41.9%, the inhibition at 10 µM (U251) was 74.6% and the inhibition at 10 µM (BT-549) was 23.1%. For the same compound, the inhibition at 10 µM (leukemia SR) was 66.4%, the inhibition at 10 µM (786-0) was 54.1% and the inhibition at 10 µM (NCI-H460) was 63%. The inhibition at 10 µM (melanoma SK-MEL-5) was 34.8%, the inhibition at 10 µM (HS 578T) was 57.8% and the inhibition at 10 µM (OVCAR-5) was 31.3%. The inhibition at 10 µM (OVCAR-4) was 51.9%, the inhibition at 10 µM (UACC-62) was 48.6% and the inhibition at 10 µM (RXF 393) was 40.7%.
